Where two headings read alike, the source gives them in different places.
Tests used:
[1] = test system: PKA; details: cited from earlier work
[2] = biological target: T1, NLuc (Oplophorus gracilirostris, UniProt Q9GV45, A31E/A60N/A81I/F95D/I117V/K70R/L54V/L99Q/M102K/N193R/P142E/Q151K/Q38R/Q45L/V71I/Y165I); type: biochemical; details: - ATP
T1 construct: His tag (inferred from IMAC purification); made in house; host or cells: E. coli
Outline: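 Luminescence was read 10 min after Nano-Glo reagent addition. Enzyme was 1 nM NLuc in PBS/0.05% IGEPAL buffer, with or without ATP.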

[3] = biological target: P. pyralis FLuc (Photinus pyralis, UniProt P08659); assay: FLuc enzymatic luminescence assay, P. pyralis FLuc; type: biochemical; details: FLuc enzymatic assay; for IC50: read-out: IC50 or SDR50 (mM) FLuc E
Outline: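 Runs with and without 10 µM ATP: compounds were pre-incubated with FLuc (1–10 nM, PBS pH 7.4) at ambient temperature, light-protected, for 30–60 min. Luminescence was imaged 5 min after adding 10 µM D-luciferin (final). Inhibition was scaled between DMSO neutral and no-enzyme controls.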

[4] = biological target: T2, FLuc-C-HiBiT (Photinus pyralis, UniProt P08659); assay: biochemical; details: enzyme activity, 10 uM ATP; read-out: IC50 or SDR50 (mM) / FLuc E
T2 construct: firefly luciferase with C-terminal HiBiT tag, E. coli expressed

[5] = biological target: FLuc-C-NLuc (firefly luciferase) (Photinus pyralis, UniProt P08659, form not given/L550V); assay: SDR assay, FLuc-C-NLuc; details: - ATP
[6] = biological target: FLuc-C-HiBiT (firefly luciferase) (Photinus pyralis, UniProt P08659, form not given/L550V); assay: SDR assay, FLuc-C-HiBiT; details: SDR max. response, clade S
[7] = annotation yes/no for kinase library compound, source not given

Chain of FLuc-C-HiBiT (firefly luciferase) (P08659 2-550 L550V, form open): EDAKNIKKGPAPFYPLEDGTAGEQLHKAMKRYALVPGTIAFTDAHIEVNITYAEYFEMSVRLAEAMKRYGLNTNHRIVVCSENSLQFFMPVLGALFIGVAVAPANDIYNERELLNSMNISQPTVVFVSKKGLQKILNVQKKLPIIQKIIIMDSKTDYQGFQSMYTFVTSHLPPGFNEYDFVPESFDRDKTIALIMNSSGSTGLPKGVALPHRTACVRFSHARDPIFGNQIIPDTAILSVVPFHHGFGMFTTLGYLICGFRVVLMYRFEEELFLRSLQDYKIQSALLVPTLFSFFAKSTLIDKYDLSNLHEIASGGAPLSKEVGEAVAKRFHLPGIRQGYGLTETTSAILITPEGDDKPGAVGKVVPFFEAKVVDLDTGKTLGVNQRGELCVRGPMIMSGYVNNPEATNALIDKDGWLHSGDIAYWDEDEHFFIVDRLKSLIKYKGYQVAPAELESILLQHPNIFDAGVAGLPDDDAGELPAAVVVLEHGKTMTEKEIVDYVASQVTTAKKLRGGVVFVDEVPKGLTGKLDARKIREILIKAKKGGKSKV
Chain of FLuc-C-NLuc (firefly luciferase) (P08659 2-550 L550V, form open): as above
Chain of P. pyralis FLuc (P08659 whole entry): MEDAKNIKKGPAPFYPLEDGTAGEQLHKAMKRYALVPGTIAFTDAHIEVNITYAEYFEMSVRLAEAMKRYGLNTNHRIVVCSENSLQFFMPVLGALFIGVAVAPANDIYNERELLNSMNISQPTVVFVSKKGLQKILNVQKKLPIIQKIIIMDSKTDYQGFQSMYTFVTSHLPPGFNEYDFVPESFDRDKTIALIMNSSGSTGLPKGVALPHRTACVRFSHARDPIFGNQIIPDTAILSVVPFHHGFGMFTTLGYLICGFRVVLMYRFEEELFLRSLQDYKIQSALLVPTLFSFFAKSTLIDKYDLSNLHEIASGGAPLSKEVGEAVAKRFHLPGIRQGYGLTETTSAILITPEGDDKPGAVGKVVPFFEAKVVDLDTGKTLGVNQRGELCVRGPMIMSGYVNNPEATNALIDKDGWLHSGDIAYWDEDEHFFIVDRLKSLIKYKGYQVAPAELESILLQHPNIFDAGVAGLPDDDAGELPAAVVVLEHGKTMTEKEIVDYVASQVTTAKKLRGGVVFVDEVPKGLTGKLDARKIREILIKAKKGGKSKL
T2 sequence (P08659 whole entry, looked up): as the sequence (P08659 whole entry) above
T1 sequence (Q9GV45 other isoform, or with tags, fused parts or gaps with the stated changes): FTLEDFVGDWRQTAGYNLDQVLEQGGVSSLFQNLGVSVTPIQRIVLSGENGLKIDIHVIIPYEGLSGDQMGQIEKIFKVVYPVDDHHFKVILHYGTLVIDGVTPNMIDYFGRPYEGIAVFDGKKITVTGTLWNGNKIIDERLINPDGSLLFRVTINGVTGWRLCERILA

Row | Compound | Annotated PKA activity [1, 7] | Annotated PKA activity [1] | Efficacy (%) NLuc (- ATP) [2] [%] | pIC50 or pSDR50 NLuc (- ATP) [2] | IC50 ([2]; read-out: IC50 or SDR50 (mM) NLuc (- ATP)) [mM] | pIC50 or pSDR50 FLuc E [3] | Efficacy (%) FLuc E ([3]; Clade S follow-up) [%] | IC50 [3] [mM] | IC50 [4] [mM] | Efficacy (%) FLuc-C-NLuc SDR (-ATP) [5] [%] | % Activity (max response, + ATP) [6] [%] | % Activity (max response, - ATP) [6] [%] | pIC50 or pSDR50 FLuc E ([3]; Clade S follow-up) | IC50 ([3]; Clade S follow-up) [mM]
1 | PHA-665752 | no |  |  |  |  |  |  |  |  |  |  |  |  | 
2 | C=CC(=O)Nc1cc2c(Nc3ccc(F)c(Cl)c3)ncnc2cc1OCCCN1CCOCC1 [Canertinib] | no |  |  |  |  |  |  |  |  |  |  |  |  | 
3 | Cc1ccc(NC(=O)c2ccc(CN3CCN(C)CC3)cc2)cc1Nc1nc(-c2cccnc2)cs1 [Masitinib] | no |  |  |  |  |  |  |  |  |  |  |  |  | 
4 | CC(C)n1nc(-c2cc3cc(O)ccc3[nH]2)c2c(N)ncnc21 [PP 242] |  | yes |  |  |  |  |  |  |  |  |  |  |  | 
5 | COc1cc2c(Oc3ccc(NC(=O)C4(C(=O)Nc5ccc(F)cc5)CC4)cc3F)ccnc2cc1OCCCN1CCOCC1 [Foretinib] | no |  |  |  |  |  |  |  |  |  |  |  |  | 
6 | CSc1ccc(CNC(=O)C2CCN(C(=O)c3ncn4c3COC(c3ccccc3)C4)CC2)cc1 (stereo not shown) [NCGC00449782-01] |  |  | -35.74 | 4.71 | 0.0197 | 5.26 | -89.02 | 0.00555 | 0.00624 | 0.00 | 293.16 | 0.00 |  | 
7 | O=C(NCCc1ccccc1)C1CCN(C(=O)c2ncn3c2COC(c2ccccc2)C3)CC1 (stereo not shown) [NCGC00449794-01] |  |  | 0.00 |  |  | 5.66 | -92.17 | 0.00221 | 0.00248 | 0.00 | 379.45 | 0.00 |  | 
8 | O=C(NCCc1cccs1)C1CCN(C(=O)c2ncn3c2COC(c2ccccc2)C3)CC1 (stereo not shown) [NCGC00449796-01] |  |  | 0.00 |  |  | 5.26 | -97.05 | 0.00555 | 0.00442 | 0.00 | 316.37 | 0.00 |  | 
9 | CC(NC(=O)C1CCN(C(=O)c2ncn3c2COC(c2ccccc2)C3)CC1)c1ccc(F)cc1 (stereo not shown) [NCGC00449793-01] |  |  | 0.00 |  |  | 5.16 | -92.83 | 0.00699 | 0.00495 | 0.00 | 272.56 | 0.00 |  | 
10 | CN[C@@H]1C[C@H]2O[C@@](C)([C@@H]1OC)n1c3ccccc3c3c4c(c5c6ccccc6n2c5c31)C(=O)NC4 [staurosporine, reference compound] | yes |  |  |  |  |  |  |  |  |  |  |  |  | 
11 | CC(C)c1cccc(NC(=O)C2CCN(C(=O)c3ncn4c3COC(c3ccccc3)C4)CC2)c1 (stereo not shown) [NCGC00449908-01] |  |  | 0.00 |  |  |  | -95.10 |  | 0.00785 | 0.00 | 304.79 | 0.00 | 5.26 | 0.00555
12 | O=C(NCc1ccncc1)C1CCN(C(=O)c2ncn3c2COC(c2ccccc2)C3)CC1 (stereo not shown) [NCGC00449800-01] |  |  | 0.00 |  |  | 6.01 | -91.84 | 0.00099 | 0.00176 | 0.00 | 375.34 | 0.00 |  | 
13 | COc1ccc(C)cc1NC(=O)C1CCN(C(=O)c2ncn3c2COC(c2ccc(F)cc2)C3)CC1 (stereo not shown) [NCGC00449936-01] |  |  | 0.00 |  |  |  | -99.49 |  | 0.00989 | 0.00 | 128.83 | -5.78 | 5.06 | 0.0088
14 | COc1cc2ncnc(Nc3ccc(F)c(Cl)c3)c2cc1OCCCN1CCOCC1 [Gefitinib] | no |  |  |  |  |  |  |  |  |  |  |  |  | 
15 | O=C(NCc1ccco1)C1CCN(C(=O)c2ncn3c2COC(c2ccccc2)C3)CC1 (stereo not shown) [NCGC00449791-01] |  |  | 0.00 |  |  | 5.56 | -97.55 | 0.00278 | 0.00248 | 0.00 | 367.63 | 0.00 |  | 
16 | Cc1cc(C)c(/C=C2\C(=O)Nc3ccccc32)[nH]1 [Semaxanib] | no |  |  |  |  |  |  |  |  |  |  |  |  | 
17 | O=C(NCC1CC1)C1CCN(C(=O)c2ncn3c2COC(c2ccccc2)C3)CC1 (stereo not shown) [NCGC00449799-01] |  |  | 0.00 |  |  | 5.11 | -97.90 | 0.00784 | 0.007 | 0.00 | 355.70 | 0.00 |  | 
18 | O=C(Nc1cccc(F)c1)C1CCN(C(=O)c2ncn3c2COC(c2ccccc2)C3)CC1 (stereo not shown) [NCGC00449914-01] |  |  | 0.00 |  |  |  | -105.74 |  | 0.000881 | 0.00 | 387.59 | 0.00 | 6.21 | 0.00062
19 | O=C(NCc1cccs1)C1CCN(C(=O)c2ncn3c2COC(c2ccccc2)C3)CC1 (stereo not shown) [NCGC00449792-01] |  |  | 0.00 |  |  | 5.51 | -100.37 | 0.00312 | 0.00248 | 0.00 | 209.49 | 17.67 |  | 
20 | Cc1cc(C)cc(NC(=O)C2CCN(C(=O)c3ncn4c3COC(c3ccccc3)C4)CC2)c1 (stereo not shown) [NCGC00449905-01] |  |  | 0.00 |  |  |  | -86.91 |  | 0.00313 | 0.00 | 375.38 | 0.00 | 5.46 | 0.0035
21 | CCCCNC(=O)C1CCN(C(=O)c2ncn3c2COC(c2ccccc2)C3)CC1 (stereo not shown) [NCGC00449772-01] |  |  | 0.00 |  |  | 5.11 | -88.46 | 0.00784 | 0.00624 | 0.00 | 357.97 | 0.00 |  | 
22 | CCOc1ccc(NC(=O)C2CCN(C(=O)c3ncn4c3COC(c3ccccc3)C4)CC2)cc1 (stereo not shown) [NCGC00449913-01] |  |  | -11.50 |  |  |  | -92.73 |  | 0.007 | 0.00 | 212.53 | 0.00 | 5.36 | 0.00441
23 | CCOc1cccc(CNC(=O)C2CCN(C(=O)c3ncn4c3COC(c3ccccc3)C4)CC2)c1 (stereo not shown) [NCGC00449780-01] |  |  | 0.00 |  |  | 4.96 | -78.48 | 0.0111 | 0.00785 | 0.00 | 197.04 | 0.00 |  | 
